Laboratory results from PMC7340670, “Phase I study of TAS-115, a novel oral multi-kinase inhibitor, in patients with advanced solid tumors” (Investigational New Drugs, 2019).
Entries after “also recorded” stand apart in the source; their conditions may differ.

Columns and labels:
[1] = test system: patients with advanced solid tumors; experiment: Phase I study (JapicCTI-132333): safety, tolerability, DLT, MTD, RP2D; format: in vivo
Method: This is an open-label, nonrandomized, dose-escalation study conducted at five sites in Japan. The study has three parts: a dose-escalation cohort using a traditional 3 + 3 design (part 1), a dosing schedule investigation cohort (part 2), and an expansion cohort to assess the safety at the MTD or lower doses among more patients (expansion part).
For each dose level in part 1, three to six patients were enrolled. DLTs were evaluated during the first cycle. […] The study drug was orally administered under empty stomach conditions (1 h before or 2 h after a meal) with a cup of water. […] In the expansion part, ≤MTD was investigated for exposure and safety.
All patients in parts 1 and 2 were required to be hospitalized for cycle 1 in order to observe AE. Patients continued to receive the study drug until disease progression or intolerable toxicity. […] The number of dose reductions was up to 2, and the minimum dose was 100 mg/day. […]

[2] = test system: tumor growth and abnormal bone remodeling; set-up: method as in PMID 24140932, PMID 27539855, PMID 27736957; settings: cited from earlier work
[3] = test system: osteoclast differentiation; set-up: method as in data on file; settings: in vitro; ref data on file; cited from earlier work
[4] = Part 1, 200–800 mg/day, SID (N = 21), patients (%)
[5] = Part 2 + Expansion part, 450 or 650 mg/day, 5-on/2-off (N = 61), patients (%)
[6] = part 2 and expansion part (N = 61)

CNC(=O)c1cc2c(Oc3ccc(NC(=S)NC(=O)Cc4ccccc4)cc3F)ccnc2cc1OC [TAS-115]
CRPC patients with AEs requiring dose reduction ([1]; 650 mg/day, early expansion part): five of six
Treatment-related adverse events: Alanine aminotransferase increased, Any Grade [1, 4]: 11 (52.4)
Treatment-related adverse events: Alanine aminotransferase increased, ≥ Grade 3 [1, 4]: 0 (0.0)
Treatment-related adverse events: Amylase increased, Any Grade [1, 4]: 8 (38.1)
Treatment-related adverse events: Amylase increased, ≥ Grade 3 [1, 4]: 3 (14.3)
Treatment-related adverse events: Anemia, Any Grade [1, 4]: 2 (9.5)
Treatment-related adverse events: Anemia, ≥ Grade 3 [1, 4]: 2 (9.5)
Treatment-related adverse events: Any Events, Any Grade [1, 4]: 21 (100.0)
Treatment-related adverse events: Any Events, ≥ Grade 3 [1, 4]: 13 (61.9)
Treatment-related adverse events: Aspartate aminotransferase increased, Any Grade [1, 4]: 15 (71.4)
Treatment-related adverse events: Aspartate aminotransferase increased, ≥ Grade 3 [1, 4]: 0 (0.0)
Treatment-related adverse events: Decreased appetite, Any Grade [1, 4]: 7 (33.3)
Treatment-related adverse events: Decreased appetite, ≥ Grade 3 [1, 4]: 1 (4.8)
Treatment-related adverse events: Diarrhea, Any Grade [1, 4]: 3 (14.3)
Treatment-related adverse events: Diarrhea, ≥ Grade 3 [1, 4]: 0 (0.0)
Treatment-related adverse events: Edema, Any Grade [1, 4]: 6 (28.6)
Treatment-related adverse events: Edema, ≥ Grade 3 [1, 4]: 0 (0.0)
Treatment-related adverse events: Face edema, Any Grade [1, 4]: 6 (28.6)
Treatment-related adverse events: Face edema, ≥ Grade 3 [1, 4]: 0 (0.0)
Treatment-related adverse events: Fatigue, Any Grade [1, 4]: 10 (47.6)
Treatment-related adverse events: Fatigue, ≥ Grade 3 [1, 4]: 0 (0.0)
Treatment-related adverse events: Hypophosphatemia, Any Grade [1, 4]: 6 (28.6)
Treatment-related adverse events: Hypophosphatemia, ≥ Grade 3 [1, 4]: 5 (23.8)
Treatment-related adverse events: Leukocytopenia, Any Grade [1, 4]: 8 (38.1)
Treatment-related adverse events: Leukocytopenia, ≥ Grade 3 [1, 4]: 2 (9.5)
Treatment-related adverse events: Lipase increased, Any Grade [1, 4]: 6 (28.6)
Treatment-related adverse events: Lipase increased, ≥ Grade 3 [1, 4]: 5 (23.8)
Treatment-related adverse events: Nausea, Any Grade [1, 4]: 7 (33.3)
Treatment-related adverse events: Nausea, ≥ Grade 3 [1, 4]: 0 (0.0)
Treatment-related adverse events: Neutropenia, Any Grade [1, 4]: 8 (38.1)
Treatment-related adverse events: Neutropenia, ≥ Grade 3 [1, 4]: 3 (14.3)
Treatment-related adverse events: Rash, Any Grade [1, 4]: 12 (57.1)
Treatment-related adverse events: Rash, ≥ Grade 3 [1, 4]: 2 (9.5)
Treatment-related adverse events: Thrombocytopenia, Any Grade [1, 4]: 8 (38.1)
Treatment-related adverse events: Thrombocytopenia, ≥ Grade 3 [1, 4]: 1 (4.8)
Treatment-related adverse events: Vomiting, Any Grade [1, 4]: 4 (19.0)
Treatment-related adverse events: Vomiting, ≥ Grade 3 [1, 4]: 0 (0.0)
Treatment-related adverse events: Alanine aminotransferase increased, Any Grade [1, 5]: 23 (37.7)
Treatment-related adverse events: Alanine aminotransferase increased, ≥ Grade 3 [1, 5]: 1 (1.6)
Treatment-related adverse events: Amylase increased, Any Grade [1, 5]: 10 (16.4)
Treatment-related adverse events: Amylase increased, ≥ Grade 3 [1, 5]: 1 (1.6)
Treatment-related adverse events: Anemia, Any Grade [1, 5]: 21 (34.4)
Treatment-related adverse events: Anemia, ≥ Grade 3 [1, 5]: 9 (14.8)
Treatment-related adverse events: Any Events, Any Grade [1, 5]: 60 (98.4)
Treatment-related adverse events: Any Events, ≥ Grade 3 [1, 5]: 47 (77.0)
Treatment-related adverse events: Aspartate aminotransferase increased, Any Grade [1, 5]: 31 (50.8)
Treatment-related adverse events: Aspartate aminotransferase increased, ≥ Grade 3 [1, 5]: 4 (6.6)
Treatment-related adverse events: Decreased appetite, Any Grade [1, 5]: 26 (42.6)
Treatment-related adverse events: Decreased appetite, ≥ Grade 3 [1, 5]: 6 (9.8)
Treatment-related adverse events: Diarrhea, Any Grade [1, 5]: 14 (23.0)
Treatment-related adverse events: Diarrhea, ≥ Grade 3 [1, 5]: 0 (0.0)
Treatment-related adverse events: Edema, Any Grade [1, 5]: 10 (16.4)
Treatment-related adverse events: Edema, ≥ Grade 3 [1, 5]: 0 (0.0)
Treatment-related adverse events: Face edema, Any Grade [1, 5]: 11 (18.0)
Treatment-related adverse events: Face edema, ≥ Grade 3 [1, 5]: 0 (0.0)
Treatment-related adverse events: Fatigue, Any Grade [1, 5]: 27 (44.3)
Treatment-related adverse events: Fatigue, ≥ Grade 3 [1, 5]: 1 (1.6)
Treatment-related adverse events: Hypophosphatemia, Any Grade [1, 5]: 20 (32.8)
Treatment-related adverse events: Hypophosphatemia, ≥ Grade 3 [1, 5]: 13 (21.3)
Treatment-related adverse events: Leukocytopenia, Any Grade [1, 5]: 18 (29.5)
Treatment-related adverse events: Leukocytopenia, ≥ Grade 3 [1, 5]: 7 (11.5)
Treatment-related adverse events: Lipase increased, Any Grade [1, 5]: 9 (14.8)
Treatment-related adverse events: Lipase increased, ≥ Grade 3 [1, 5]: 4 (6.6)
Treatment-related adverse events: Nausea, Any Grade [1, 5]: 26 (42.6)
Treatment-related adverse events: Nausea, ≥ Grade 3 [1, 5]: 1 (1.6)
Treatment-related adverse events: Neutropenia, Any Grade [1, 5]: 21 (34.4)
Treatment-related adverse events: Neutropenia, ≥ Grade 3 [1, 5]: 15 (24.6)
Treatment-related adverse events: Rash, Any Grade [1, 5]: 15 (24.6)
Treatment-related adverse events: Rash, ≥ Grade 3 [1, 5]: 1 (1.6)
Treatment-related adverse events: Thrombocytopenia, Any Grade [1, 5]: 19 (31.1)
Treatment-related adverse events: Thrombocytopenia, ≥ Grade 3 [1, 5]: 9 (14.8)
Treatment-related adverse events: Vomiting, Any Grade [1, 5]: 19 (31.1)
Treatment-related adverse events: Vomiting, ≥ Grade 3 [1, 5]: 1 (1.6)
recommended phase II dose (RP2D) ([1]; SID, 5-on/2-off for 21 days per cycle, estimated): 650 mg
treatment-related death ([1]; any study part, during treatment or within 28 days of the last dose): No treatment-related death was observed
patients with TRAEs leading to dose interruption ([1]; cohorts 650 mg and 800 mg in part 1): All the patients
Serious AEs ([1]; expansion part): thirty one patients
Serious TRAEs ([1]; expansion part): decreased appetite (three patients), nausea (two patients), interstitial lung disease, rash, enterocolitis, fatigue, thrombocytopenia, and pyrexia (one patient each)
AEs resulted in death ([1]; expansion part (650 mg), not considered related to TAS-115): hepatic failure, disease progression and respiratory failure occurred in one patient each
Serious AEs ([1]; part 1): seven patients
Serious TRAEs ([1]; part 1): tumor hemorrhage and decreased appetite (one patient, 650 mg each), thrombocytopenia (one patient, 800 mg)
TRAEs that led to treatment discontinuation ([1]; part 1): rash (one patient, 800 mg)
Grade ≥3 TRAEs ([1]; part 1 (N = 21)): 13 patients
Treatment-related adverse events: Any Events, Total ([1]; part 1, 200 mg SID (N=3)): 3 (100.0) N (%)
Treatment-related adverse events: Any Events, ≥ Grade 3 ([1]; part 1, 200 mg SID (N=3)): 1 (33.3) N (%)
Treatment-related adverse events: Investigations, Total ([1]; part 1, 200 mg SID (N=3)): 2 (66.7) N (%)
Treatment-related adverse events: Investigations, ≥ Grade 3 ([1]; part 1, 200 mg SID (N=3)): 1 (33.3) N (%)
Treatment-related adverse events: Any Events, Total ([1]; part 1, 300 mg SID (N=3)): 3 (100.0) N (%)
Treatment-related adverse events: Any Events, ≥ Grade 3 ([1]; part 1, 300 mg SID (N=3)): 2 (66.7) N (%)
Treatment-related adverse events: Investigations, Total ([1]; part 1, 300 mg SID (N=3)): 2 (66.7) N (%)
Treatment-related adverse events: Investigations, ≥ Grade 3 ([1]; part 1, 300 mg SID (N=3)): 2 (66.7) N (%)
Treatment-related adverse events: Any Events, Total ([1]; part 1, 450 mg SID (N=3)): 3 (100.0) N (%)
Treatment-related adverse events: Any Events, ≥ Grade 3 ([1]; part 1, 450 mg SID (N=3)): 2 (66.7) N (%)
Treatment-related adverse events: Investigations, Total ([1]; part 1, 450 mg SID (N=3)): 3 (100.0) N (%)
Treatment-related adverse events: Investigations, ≥ Grade 3 ([1]; part 1, 450 mg SID (N=3)): 2 (66.7) N (%)
treatment interruption during cycle 1 ([1]; part 1, 650 mg SID): all patients who received 650 mg SID required treatment interruption; also recorded: all patients who received 650 mg SID had treatment interruption
Treatment-related adverse events: Any Events, Total ([1]; part 1, 650 mg SID (N=6)): 6 (100.0) N (%)
Treatment-related adverse events: Any Events, ≥ Grade 3 ([1]; part 1, 650 mg SID (N=6)): 5 (83.3) N (%)
Treatment-related adverse events: Investigations, Total ([1]; part 1, 650 mg SID (N=6)): 6 (100.0) N (%)
Treatment-related adverse events: Investigations, ≥ Grade 3 ([1]; part 1, 650 mg SID (N=6)): 3 (50.0) N (%)
Treatment-related adverse events: Any Events, Total ([1]; part 1, 800 mg SID (N=6)): 6 (100.0) N (%)
Treatment-related adverse events: Any Events, ≥ Grade 3 ([1]; part 1, 800 mg SID (N=6)): 3 (50.0) N (%)
Treatment-related adverse events: Investigations, Total ([1]; part 1, 800 mg SID (N=6)): 4 (66.7) N (%)
Treatment-related adverse events: Investigations, ≥ Grade 3 ([1]; part 1, 800 mg SID (N=6)): 1 (16.7) N (%)
dose dependence of TRAEs ([1]; part 1, 200–800 mg SID): no dose-dependent increase in the incidence and grade of TRAEs was observed
DLTs overall ([1]; part 1, 200–800 mg SID, 21 patients): Three dose-limiting toxicities; also recorded: three DLTs
maximum tolerated dose (MTD) ([1]; part 1, SID, 21 days per cycle, granule formulation): 650 mg
DLTs at 650 mg SID ([1]; part 1, cycle 1, N = 6): grade 3 rash in one patient
DLTs at 800 mg SID ([1]; part 1, cycle 1, N = 6): grade 3 thrombocytopenia with bleeding and grade 3 rash each in one patient
Serious AEs ([1]; part 2): two patients
Serious TRAEs ([1]; part 2): peritonitis (one patient)
treatment interruption in cycle 1 ([1]; part 2, 650 mg SID 5-on/2-off): no patients required treatment interruption
DLTs at 650 mg SID 5-on/2-off ([1]; part 2, cycle 1, six patients): No DLTs were observed; also recorded: no DLTs were reported
TRAEs that led to treatment discontinuation ([1]; part 2 and expansion part): rash (two patients, 650 mg), pyrexia, peritonitis and neutropenia (one patient each, 650 mg)
TRAE anemia, any grade [1, 6]: 34.4%
TRAE decreased appetite, any grade [1, 6]: 42.6%
TRAE fatigue, any grade [1, 6]: 44.3%
TRAE hypophosphatemia, any grade [1, 6]: 32.8%
TRAE increased ALT, any grade [1, 6]: 37.7%
TRAE increased AST, any grade [1, 6]: 50.8%
TRAE nausea, any grade [1, 6]: 42.6%
TRAE neutropenia, any grade [1, 6]: 34.4%
TRAE thrombocytopenia, any grade [1, 6]: 31.1%
TRAE vomiting, any grade [1, 6]: 31.1%
grade ≥3 TRAE anemia [1, 6]: 14.8%
grade ≥3 TRAE hypophosphatemia [1, 6]: 21.3%
grade ≥3 TRAE leukocytopenia [1, 6]: 11.5%
grade ≥3 TRAE neutropenia [1, 6]: 24.6%
grade ≥3 TRAE thrombocytopenia [1, 6]: 14.8%
frequency of TRAEs leading to dose interruption ([1]; part 2 and the expansion part): approximately 77%
tolerability ([1]; patients with advanced solid tumors, up to 650 mg 5-on/2-off): generally well tolerated
antitumor effect in mouse xenograft models [2]: potent antitumor effect, inhibiting tumor growth and abnormal bone remodeling
osteoclast differentiation induced by M-CSF and RANKL [3]: dose-dependent inhibition
